Assay results from patent US20170217899A1, “NOVEL HALOGEN-SUBSTITUTED COMPOUNDS” (BAYER CROPSCIENCE AKTIENGESELLSCHAFT, priority 2014, published 2017).
Read-outs that look alike come from different tables or passages of the source.

Key:
[1] = logP determination by HPLC on reversed-phase column (C18), EEC Directive 79/831 Annex V.A8; assay type: physicochemical; details: for chromatographic logP: reversed-phase HPLC column (C18)
Spodoptera frugiperda = Spodoptera frugiperda spray test; assay type: in vivo; details: for mortality: 100 g/ha, maize leaf sections, larvae, after 7 days
Method: Spodoptera Frugiperda—Spray Test
(§1) To produce a suitable preparation of active compound, 1 part by weight of active compound is mixed with the stated amount of solvents and is diluted with water, containing an emulsifier concentration of 1000 ppm, to the desired concentration. Further test concentrations are prepared by dilution with emulsifier containing water.
Maize (Zea mays) leaf sections are sprayed with a preparation of the active ingredient of the desired concentration. Once dry, the leaf sections are infested with fall armyworm larvae (Spodoptera frugiperda).
After 7 days mortality in % is determined. 100% means all caterpillars have been killed and 0% means none of the caterpillars have been killed.

Myzus persicae = Myzus persicae spray test; assay type: in vivo; details: 100 g/ha, Chinese cabbage leaf disks, all instars, after 6 days
Method: Myzus Persicae—Spray Test
as §1
Chinese cabbage (Brassica pekinensis) leaf disks infected with all instars of the green peach aphid (Myzus persicae), are sprayed with a preparation of the active ingredient of the desired concentration.
After 6 days mortality in % is determined. 100% means all aphids have been killed and 0% means none of the aphids have been killed.

Ctenocephalides felis = Ctenocephalides felis oral test (CTECFE); assay type: in vivo; details: 100 ppm in cattle blood, adult cat fleas, after 2 days
Method: Ctenocephalides felis—Oral Test (CTECFE)
(§2) Solvent: Dimethyl Sulfoxide
To produce a suitable preparation of active compound, 10 mg of active compound are dissolved in 0.5 ml solvent, and the concentrate is diluted with cattle blood to the desired concentration.
Approximately 20 adult unfed cat fleas (Cienocephalides felis) are placed in flea chambers. The blood chamber, sealed with parafilm on the bottom, are filled with cattle blood supplied with compound solution and placed on the gauze covered top of the flea chamber, so that the fleas are able to suck the blood. The blood chamber is heated to 37° C. whereas the flea chamber is kept at room temperature.
After 2 days mortality in % is determined. 100% means all the fleas have been killed; 0% means none of the fleas have been killed.

Boophilus microplus = Boophilus microplus injection test (BOOPMI Inj); assay type: in vivo; details: 20 μg/animal, injection into adult engorged female ticks, egg deposition after 7 days
Method: Boophilus Microplus—Injectiontest (BOOPMI Inj)
as §2
To produce a suitable preparation of active compound, 10 mg of active compound are dissolved in 0.5 ml solvent, and the concentrate is diluted with solvent to the desired concentration.
Five adult engorged female ticks (Boophilus microplus) are injected with 1 μl compound solution into the abdomen. The ticks are transferred into replica plates and incubated in a climate chamber.
After 7 days egg deposition of fertile eggs is monitored. Eggs where fertility is not visible are stored in a climate chamber till hatching after about 42 days. An efficacy of 100% means all eggs are infertile; 0% means all eggs are fertile.

Lucilia cuprina = Lucilia cuprina test (LUCICU); assay type: in vivo; details: 100 ppm, 1st instar larvae, after 2 days
Method: Lucilia cunrina—Test (LUCICU)
as §2
10 mg active compound are dissolved in 0.5 ml Dimethylsulfoxid. Serial dilutions are made to obtain the desired rates.
Approximately 20 1st instar larvae of the Australian sheep blowfly (Lucilia cuprina) are transferred into a test tube containing minced horse meat and compound solution of the desired concentration.
After 2 days mortality in % is determined. 100% means all the larvae have been killed; 0% means none of the larvae have been killed.

Tetranychus urticae = Tetranychus urticae spray test OP-resistant; assay type: in vivo; details: in Phaseolus vulgaris, foliar, 144 h
Method: Tetranychus urticae—Spray Test OP-Resistant
as §1
French bean (Phaseolus vulgaris) leaf disks infected with all instars of the two spotted spidermite (Tetranychus urticae), are sprayed with a preparation of the active ingredient of the desired concentration.
After 6 days mortality in % is determined. 100% means all spider mites have been killed and 0% means none of the spider mites have been killed.

Phaedon cochleariae = Phaedon cochleariae spray test; assay type: in vivo; details: in Brassica rapa, foliar, 168 h
Method: Phaedon cochleariae—Spray Test
as §1
Chinese cabbage (Brassica pekinensis) leaf disks are sprayed with a preparation of the active ingredient of the desired concentration. Once dry, the leaf disks are infested with mustard beetle larvae (Phaedon cochleariae).
After 7 days mortality in % is determined. 100% means all beetle larvae have been killed and 0% means none of the beetle larvae have been killed.

[2] = HPLC, C18, acetonitrile (0.1% formic acid)/water (0.09% formic acid) gradient
[3] = intermediates, values in text, same HPLC method, read-out: log P (HPLC-MS)
[4] = intermediates, values in text, same HPLC method
[5] = HPLC, C18, acetonitrile (0.1% formic acid)/water (0.09% formic acid) gradient, read-out: logP

Molecule | logP [1, 2] | chromatographic logP [1, 3] | also measured
Cn1nc(C2(Cl)CC2)c(C(F)F)c1-n1cc(-c2cnc(Cl)c(C(=O)NC3CC3)c2)cn1 [Example I-10] | 2.60 |  | 
Cn1nc(C2(Cl)CC2)c(C(F)F)c1-n1cc(-c2ccc(Cl)c(C(=O)NC3CC3)c2)cn1 [Example I-8] | 3.05 |  | mortality (Spodoptera frugiperda): 100%
Cn1nc(C2(Br)CC2)c([N+](=O)[O-])c1-n1cc(-c2ccc(Cl)c(C(=O)NC3CC3)c2)cn1 [Example I-6] | 2.98 |  | 
CN(C)/C=C/C(=O)C1(F)CC1 [Example 16, (2E)-3-(dimethylamino)-1-(1-fluorocyclopropyl)prop-2-en-1-one] |  | 1.16 | 
Cn1nc(C2(F)CC2)c(C(F)F)c1-n1cc(-c2ccc(Cl)c(C(=O)NC3CC3)c2)cn1 [Example I-3] | 2.81 |  | 
Cn1nc(C2(F)CC2)c(C(F)F)c1-n1cc(-c2cnc(Cl)c(C(=O)NC3CC3)c2)cn1 [Example I-12] | 2.42 |  | 
COC(=O)c1cc(-c2cnn(-c3c(C(F)F)c(C4(F)CC4)nn3C)c2)ccc1Cl [Example 28, methyl 2-chloro-5-[4′-(difluoromethyl)-5′-(1-fluorocyclopropyl)-2′-methyl-2′H-1,3′-bipyrazol-4-yl]benzoate] |  | 3.63 | 
5′-(1-fluorocyclopropyl)-4-iodo-2′-methyl-2′H-1,3′-bipyrazole-4′-carbaldehyde [Example 25] |  |  | log P (HPLC-MS) [1, 4]: 2.86
N#CC1(NC(=O)c2cc(-c3cn[nH]c3)ccc2Cl)CC1 [Example 14, 2-chloro-N-(1-cyanocyclopropyl)-5-(1H-pyrazol-4-yl)benzamide] |  | 1.31 | 
Cn1nc(C2(Cl)CC2)c(C(F)F)c1-n1cc(-c2ccc(Cl)c(C(=O)NC3(C#N)CC3)c2)cn1 [Example I-7] | 2.96 |  | mortality (Myzus persicae): 90%; mortality (Spodoptera frugiperda): 100%
Cn1nc(C2(F)CC2)c(C(F)(F)F)c1-n1cc(-c2ccc(Cl)c(C(=O)NC3(C#N)CC3)c2)cn1 [Example I-1, 2-chloro-N-(1-cyanocyclopropyl)-5-[5′-(1-fluorocyclopropyl)-2′-methyl-4′-(trifluoromethyl)-2′H-1,3′-bipyrazol-4-yl]benzamide] |  |  | chromatographic logP [1, 5]: 3.09
Cn1nc(C2(F)CC2)c([N+](=O)[O-])c1-n1cc(-c2ccc(Cl)c(C(=O)NC3(C#N)CC3)c2)cn1 [Example I-4] | 2.69 |  | mortality (Ctenocephalides felis): 100%; efficacy (infertile eggs) (Boophilus microplus): 100%; mortality (Lucilia cuprina): 100%
Cn1nc(C2(F)CC2)c(C=O)c1Cl [Example 24, 5-chloro-3-(1-fluorocyclopropyl)-1-methyl-1H-pyrazole-4-carbaldehyde] |  | 1.71 | 
Cn1nc(C2(F)CC2)c([N+](=O)[O-])c1-n1cc(-c2ccc(Cl)c(C(=O)NC3CC3)c2)cn1 [Example I-5] | 2.70 |  | 
CN1N=C(C2(F)CC2)CC1=O [Example 32, 5-(1-fluorocyclopropyl)-2-methyl-2,4-dihydro-3H-pyrazol-3-one] |  | 0.38 | 
Cn1nc(C2(F)CC2)c(C(F)F)c1-n1cc(-c2ccc(Cl)c(C(=O)NC3(C#N)CC3)c2)cn1 [Example I-2, 2-chloro-N-(1-cyanocyclopropyl)-5-[4′-(difluoromethyl)-5′-(1-fluorocyclopropyl)-2′-methyl-2′H-1,3′-bipyrazol-4-yl]benzamide] |  |  | mortality at 100 g/ha (Tetranychus urticae): 100%; mortality at 100 g/ha (Phaedon cochleariae): 100%; mortality at 100 g/ha (Spodoptera frugiperda; Spodoptera frugiperda, in Zea mays, 168 h): 100%; chromatographic logP [1, 5]: 2.78
Cn1nc(C2(F)CC2)c(C(F)F)c1-n1cc(-c2ccc(Cl)c(C(=O)O)c2)cn1 [Example 29, 2-chloro-5-[4′-(difluoromethyl)-5′-(1-fluorocyclopropyl)-2′-methyl-2′H-1,3′-bipyrazol-4-yl]benzoic acid] |  | 2.71 | 
Cn1nc(C2(F)CC2)c(C(F)F)c1-n1cc(-c2cnc(Cl)c(C(=O)NC3(C#N)CC3)c2)cn1 [Example I-11] | 2.44 |  | 
Cn1nc(C2(Cl)CC2)c(C(F)F)c1-n1cc(-c2cnc(Cl)c(C(=O)NC3(C#N)CC3)c2)cn1 [Example I-9] | 2.63 |  | 
4′-(difluoromethyl)-5′-(1-fluorocyclopropyl)-4-iodo-2′-methyl-2′H-1,3′-bipyrazole [Example 26] |  |  | log P (HPLC-MS) [1, 4]: 3.37
